Measurements taken from patent US11337971B2, “Dopamine D3 receptor selective antagonists/partial agonists and uses thereof” (THE UNITED STATES OF AMERICA, AS REPRESENTED BY THE …, priority 2018, dated 2022).
Several values for one entry are separate records, joined by “and”; a condition that tells them apart may be missing. Equal values may be shown once. Read-outs that look alike come from different tables or passages of the source.

Experiments:
human D3R = human D3R (Homo sapiens (Human), UniProt P35462); experiment: Radioligand competition binding, [3H]N-methylspiperone, HEK293 membranes expressing human D3R; conditions: read-out: D3R Ki ± SEM
human D3R, sequence (P35462 whole entry): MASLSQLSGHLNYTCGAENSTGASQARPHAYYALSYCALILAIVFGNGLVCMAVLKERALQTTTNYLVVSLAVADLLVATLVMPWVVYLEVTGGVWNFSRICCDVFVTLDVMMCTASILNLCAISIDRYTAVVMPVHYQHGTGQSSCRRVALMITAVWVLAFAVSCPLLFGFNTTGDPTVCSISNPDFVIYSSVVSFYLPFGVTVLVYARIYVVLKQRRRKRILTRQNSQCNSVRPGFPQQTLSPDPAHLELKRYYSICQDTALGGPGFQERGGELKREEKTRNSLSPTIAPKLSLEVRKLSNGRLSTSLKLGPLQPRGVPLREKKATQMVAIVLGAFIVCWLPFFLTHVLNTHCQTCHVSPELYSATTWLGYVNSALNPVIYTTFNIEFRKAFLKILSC
How it was run: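 HEK293 membranes (10 μg protein) incubated 1 h at room temperature in EBSS with 0.2 mM sodium metabisulfite, 0.4 nM [3H]N-methylspiperone and compound (10 μM to 10 pM, triplicate). Nonspecific binding defined with 10 μM butaclamol; GF/B filtration.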

[1] = system: oxycodone-induced locomotor sensitization and CPP; experiment: Acquisition of oxycodone-induced locomotor sensitization and CPP; conditions: in vivo

CCc1cc(Cl)c(OC)c(N2CCN(CC(O)CCNC(=O)c3cc4ccccc4[nH]3)CC2)c1 (racemic) [Compound 29, N-(4-(4-(3-chloro-5-ethyl-2-methoxyphenyl)piperazin-1-yl)-3-hydroxybutyl)-1H-indole-2-carboxamide]
Ki (human D3R; Table 1B, [3H]-N-methylspiperone competition, 96-well plates): 7 nM and 6.84 nM
Ki (human D3R; Table 1C): 7.61 ± 1.17 nM
acquisition of oxycodone-induced locomotor sensitization and CPP [1]: significantly inhibits acquisition of both oxycodone-induced locomotor sensitization and CPP
